{
  "source": "ChEMBL document CHEMBL1201862",
  "about": "“PubChem BioAssay data set” (2004)",
  "test_in_all_cases": "DTP human tumour cell line panel, 48 h",
  "key": {"SN12C": {"test_system": "SN12C"}, "HT-29": {"test_system": "HT-29"}, "OVCAR-4": {"test_system": "OVCAR-4"}, "LOX IMVI": {"test_system": "LOX IMVI"}, "Malme-3M": {"test_system": "Malme-3M"}, "T47D": {"test_system": "T47D"}, "UACC-62": {"test_system": "UACC-62"}, "SNB-19": {"test_system": "SNB-19"}, "SF-268": {"test_system": "SF-268"}, "SF-295": {"test_system": "SF-295"}, "SR": {"test_system": "SR"}, "MOLT-4": {"test_system": "MOLT-4"}, "MDA-N": {"test_system": "MDA-N"}, "MDA-MB-231": {"test_system": "MDA-MB-231"}, "HCT-116": {"test_system": "HCT-116"}, "NCI/ADR-RES": {"test_system": "NCI/ADR-RES"}, "EKVX": {"test_system": "EKVX"}, "KM12": {"test_system": "KM12"}, "NCI-H226": {"test_system": "NCI-H226"}, "K562": {"test_system": "K562"}, "SK-OV-3": {"test_system": "SK-OV-3"}, "COLO 205": {"test_system": "COLO 205"}, "RPMI-8226": {"test_system": "RPMI-8226"}, "NCI-H460": {"test_system": "NCI-H460"}, "Hs-578T": {"test_system": "Hs-578T"}, "NCI-H522": {"test_system": "NCI-H522"}, "BT-549": {"test_system": "BT-549"}, "A498": {"test_system": "A498"}, "CCRF-CEM": {"test_system": "CCRF-CEM"}, "IGROV-1": {"test_system": "IGROV-1"}, "SF-539": {"test_system": "SF-539"}, "SK-MEL-2": {"test_system": "SK-MEL-2"}, "HOP-92": {"test_system": "HOP-92"}, "SK-MEL-5": {"test_system": "SK-MEL-5"}, "OVCAR-3": {"test_system": "OVCAR-3"}, "OVCAR-5": {"test_system": "OVCAR-5"}, "HL-60": {"test_system": "HL-60"}, "UO-31": {"test_system": "UO-31"}, "SNB-75": {"test_system": "SNB-75"}, "NCI-H23": {"test_system": "NCI-H23"}, "PC-3": {"test_system": "PC-3"}, "MCF7": {"test_system": "MCF7"}, "786-0": {"test_system": "786-0"}, "M14": {"test_system": "M14"}, "OVCAR-8": {"test_system": "OVCAR-8"}, "DU-145": {"test_system": "DU-145"}, "U-251": {"test_system": "U-251"}, "A549": {"test_system": "A549"}, "SK-MEL-28": {"test_system": "SK-MEL-28"}, "HOP-62": {"test_system": "HOP-62"}, "RXF 393": {"test_system": "RXF 393"}, "SW-620": {"test_system": "SW-620"}, "ACHN": {"test_system": "ACHN"}, "HCT-15": {"test_system": "HCT-15"}},
  "note": "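Five compound concentrations were applied to cells in 96-well plates for 48 hours; endpoints were derived by simple linear interpolation of the resulting dose-response curve. GI50 is the concentration that inhibits growth by half.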 Active and inactive are the calls of the source. Rule as the data show it: active = GI50 up to about 1.1 µM and inactive = higher.",
  "data": [
    {"smiles": "COc1ccc2c3c(c4cc(OC)c(OC)cc4c2c1)CN1CCC[C@H]1[C@@H]3O", "note": "[TYLOPHORININE]", "values": [
      {"measurement": "GI50", "setting": "SN12C", "result": "< 0.0201 µM (active)"},
      {"measurement": "GI50", "setting": "HT-29", "result": "< 0.0289 µM (active)"},
      {"measurement": "GI50", "setting": "OVCAR-4", "result": "0.224 µM (active)"},
      {"measurement": "GI50", "setting": "LOX IMVI", "result": "< 0.01 µM (active)"},
      {"measurement": "GI50", "setting": "Malme-3M", "result": "0.249 µM (active)"},
      {"measurement": "GI50", "setting": "T47D", "result": "< 0.0404 µM (active)"},
      {"measurement": "GI50", "setting": "UACC-62", "result": "< 0.0482 µM (active)"},
      {"measurement": "GI50", "setting": "SNB-19", "result": "< 0.01 µM (active)"},
      {"measurement": "GI50", "setting": "SF-268", "result": "< 0.0453 µM (active)"},
      {"measurement": "GI50", "setting": "SF-295", "result": "0.05 µM (active)"},
      {"measurement": "GI50", "setting": "SR", "result": "< 0.0443 µM (active)"},
      {"measurement": "GI50", "setting": "MOLT-4", "result": "< 0.0318 µM (active)"},
      {"measurement": "GI50", "setting": "MDA-N", "result": "< 0.0404 µM (active)"},
      {"measurement": "GI50", "setting": "MDA-MB-231", "result": "< 0.0489 µM (active)"},
      {"measurement": "GI50", "setting": "HCT-116", "result": "< 0.0445 µM (active)"},
      {"measurement": "GI50", "setting": "NCI/ADR-RES", "result": "0.36 µM (active)"},
      {"measurement": "GI50", "setting": "EKVX", "result": "< 0.01 µM (active)"},
      {"measurement": "GI50", "setting": "KM12", "result": "< 0.0371 µM (active)"},
      {"measurement": "GI50", "setting": "NCI-H226", "result": "0.27 µM (active)"},
      {"measurement": "GI50", "setting": "K562", "result": "0.0422 µM (active)"},
      {"measurement": "GI50", "setting": "SK-OV-3", "result": "0.0733 µM (active)"},
      {"measurement": "GI50", "setting": "COLO 205", "result": "0.039 µM (active)"},
      {"measurement": "GI50", "setting": "RPMI-8226", "result": "0.0676 µM (active)"},
      {"measurement": "GI50", "setting": "NCI-H460", "result": "< 0.0474 µM (active)"},
      {"measurement": "GI50", "setting": "Hs-578T", "result": "< 0.0441 µM (active)"},
      {"measurement": "GI50", "setting": "NCI-H522", "result": "0.29 µM (active)"},
      {"measurement": "GI50", "setting": "BT-549", "result": "0.493 µM (active)"},
      {"measurement": "GI50", "setting": "A498", "result": "< 0.0494 µM (active)"},
      {"measurement": "GI50", "setting": "CCRF-CEM", "result": "< 0.0359 µM (active)"},
      {"measurement": "GI50", "setting": "IGROV-1", "result": "< 0.0508 µM (active)"},
      {"measurement": "GI50", "setting": "SF-539", "result": "0.253 µM (active)"}
    ]},
    {"smiles": "c1ccc2c(c1)nc1n2CCCn2ccnc2-1", "values": [
      {"measurement": "GI50", "setting": "SN12C", "result": "> 100 µM (inactive)"},
      {"measurement": "GI50", "setting": "SK-MEL-2", "result": "> 100 µM (inactive)"},
      {"measurement": "GI50", "setting": "HOP-92", "result": "> 100 µM (inactive)"},
      {"measurement": "GI50", "setting": "SK-MEL-5", "result": "87.3 µM (inactive)"},
      {"measurement": "GI50", "setting": "OVCAR-3", "result": "> 100 µM (inactive)"},
      {"measurement": "GI50", "setting": "OVCAR-5", "result": "> 100 µM (inactive)"},
      {"measurement": "GI50", "setting": "HT-29", "result": "> 100 µM (inactive)"},
      {"measurement": "GI50", "setting": "OVCAR-4", "result": "> 100 µM (inactive)"},
      {"measurement": "GI50", "setting": "LOX IMVI", "result": "> 100 µM (inactive)"},
      {"measurement": "GI50", "setting": "HL-60", "result": "0.225 µM (active)"},
      {"measurement": "GI50", "setting": "UO-31", "result": "99.3 µM (inactive)"},
      {"measurement": "GI50", "setting": "SNB-75", "result": "> 100 µM (inactive)"},
      {"measurement": "GI50", "setting": "NCI-H23", "result": "> 100 µM (inactive)"},
      {"measurement": "GI50", "setting": "Malme-3M", "result": "> 100 µM (inactive)"},
      {"measurement": "GI50", "setting": "PC-3", "result": "> 100 µM (inactive)"},
      {"measurement": "GI50", "setting": "T47D", "result": "57.3 µM (inactive)"},
      {"measurement": "GI50", "setting": "MCF7", "result": "> 100 µM (inactive)"},
      {"measurement": "GI50", "setting": "UACC-62", "result": "> 100 µM (inactive)"},
      {"measurement": "GI50", "setting": "SNB-19", "result": "> 100 µM (inactive)"},
      {"measurement": "GI50", "setting": "SF-268", "result": "> 100 µM (inactive)"},
      {"measurement": "GI50", "setting": "SF-295", "result": "> 100 µM (inactive)"},
      {"measurement": "GI50", "setting": "SR", "result": "> 100 µM (inactive)"},
      {"measurement": "GI50", "setting": "MOLT-4", "result": "> 100 µM (inactive)"},
      {"measurement": "GI50", "setting": "786-0", "result": "> 100 µM (inactive)"},
      {"measurement": "GI50", "setting": "MDA-N", "result": "> 100 µM (inactive)"},
      {"measurement": "GI50", "setting": "MDA-MB-231", "result": "> 100 µM (inactive)"},
      {"measurement": "GI50", "setting": "M14", "result": "> 100 µM (inactive)"},
      {"measurement": "GI50", "setting": "HCT-116", "result": "> 100 µM (inactive)"},
      {"measurement": "GI50", "setting": "NCI/ADR-RES", "result": "27 µM (inactive)"},
      {"measurement": "GI50", "setting": "EKVX", "result": "43 µM (inactive)"},
      {"measurement": "GI50", "setting": "OVCAR-8", "result": "67.5 µM (inactive)"},
      {"measurement": "GI50", "setting": "DU-145", "result": "> 100 µM (inactive)"},
      {"measurement": "GI50", "setting": "KM12", "result": "> 100 µM (inactive)"},
      {"measurement": "GI50", "setting": "NCI-H226", "result": "68.7 µM (inactive)"},
      {"measurement": "GI50", "setting": "K562", "result": "> 100 µM (inactive)"},
      {"measurement": "GI50", "setting": "SK-OV-3", "result": "0.0137 µM (active)"},
      {"measurement": "GI50", "setting": "COLO 205", "result": "> 100 µM (inactive)"},
      {"measurement": "GI50", "setting": "RPMI-8226", "result": "> 100 µM (inactive)"},
      {"measurement": "GI50", "setting": "NCI-H460", "result": "> 100 µM (inactive)"},
      {"measurement": "GI50", "setting": "Hs-578T", "result": "> 100 µM (inactive)"},
      {"measurement": "GI50", "setting": "NCI-H522", "result": "> 100 µM (inactive)"},
      {"measurement": "GI50", "setting": "BT-549", "result": "> 100 µM (inactive)"},
      {"measurement": "GI50", "setting": "A498", "result": "> 100 µM (inactive)"},
      {"measurement": "GI50", "setting": "U-251", "result": "> 100 µM (inactive)"},
      {"measurement": "GI50", "setting": "A549", "result": "> 100 µM (inactive)"},
      {"measurement": "GI50", "setting": "SK-MEL-28", "result": "> 100 µM (inactive)"},
      {"measurement": "GI50", "setting": "IGROV-1", "result": "> 100 µM (inactive)"},
      {"measurement": "GI50", "setting": "HOP-62", "result": "> 100 µM (inactive)"},
      {"measurement": "GI50", "setting": "RXF 393", "result": "> 100 µM (inactive)"},
      {"measurement": "GI50", "setting": "SW-620", "result": "> 100 µM (inactive)"},
      {"measurement": "GI50", "setting": "ACHN", "result": "73.6 µM (inactive)"},
      {"measurement": "GI50", "setting": "SF-539", "result": "96.2 µM (inactive)"},
      {"measurement": "GI50", "setting": "HCT-15", "result": 41.1, "unit": "µM"}
    ]}
  ]
}
